Patent US10137102B2, “Oligomeric forms of 3-hydroxybutyrate” (Oulun Yliopisto, priority 2014, dated 2018)

Assays:
[1] = HOSC assay (fluorometric .OH scavenging capacity assay); format: biochemical; settings: for hydroxyl radical scavenging activity (in words) / .OH scavengers, times better than ascorbic acid / .OH scavengers, times better than glutathione: FIG. 1; for hydroxyl radical scavenging activity (in words): compared with L-ascorbic acid, L-glutathione and 3-hydroxybutyric acid; for .OH scavengers, times better than ascorbic acid / .OH scavengers, times better than glutathione: HOSC assay under Fenton's reaction, against Trolox; for .OH scavengers, times better than ascorbic acid: comparator ascorbic acid; for .OH scavengers, times better than glutathione: comparator glutathione; for scavenging capacity, times better compared to 3-HB monomer, 3-hydroxybutyric acid (3-HBA): HOSC assay, comparator commercial 3-HBA
Experimental: HOSC Assay (Fluorometric .OH Scavenging Capacity Assay)
Assay reactions were prepared according to Moore et al. (2006) and analyzed in black 96-well polystyrene plates (FluoroNunc, Thermo Scientific) with a Victor3 multilabel plate reader (PerkinElmer, Turku, Finland). Each reaction mixture contained 170 μl of 9.28×10^−8 M fluorescein (FL) prepared in 75 mM sodium phosphate buffer (pH 7.4), 30 μl of blank or sample or standard, 40 μl of 0.1990 M H2O2, and 60 μl of 3.43 mM FeCl3, pipetted to the 96-well plate in same order. Trolox standards (20, 40, 60, 80, and 100 μM), control solutions of glutathione, vitamin C, 3-HB monomer (3-hydroxybutyric acid, 3-HBA) (Sigma-Aldrich, St. Louis, Mo.), and the 3-HB oligomer samples were freshly prepared in 50% acetone for each assay. Each reaction was pipetted onto the 96-well plate in triplicate. Fluorescence was measured at the excitation wavelength of 485 nm and the emission wavelength of 535 nm. Read time for each well was 0.1 s, and each plate was read once per minute for 3 h. Based on the area under the curve (AUC) of the Trolox concentrations and the net area under the fluorescein decay curve (Ou et al. 2001), the relative HOSC values were calculated by using the regression equation for the pure compounds. Values were expressed as Trolox equivalents (TE), where one micromole of TE corresponds to one micromole of sample. The experiment was repeated three times.
Calculation of Area Under Curve (AUC) Values: AUC=0.5+f1/f0+f2/f0+f3/f0+ . . . +fi−1/f0+0.5(fi/f0) f0=the initial fluorescence reading at 0 min fi=the final fluorescence reading Calculation of Relative HOSC Values for Pure Compounds: [(AUCsample−AUCblank)/(AUCTrolox−AUCblank)]×(Molarity of Trolox/Molarity of sample)] Iron-Catalyzed Hydroxyl Radical Formation by Haber-Weiss Driven Fenton Reaction (Liochev 1999, Kehrer 2000): Fe^3++O.^2−→Fe^2++O2 (1) Fe^2++H2O2→Fe^3++OH^−+OH.(Fenton reaction) (2)
The Net Reaction: O.^2−+H2O2→O2+OH^−+OH. (3)
Fluorometric .OH scavenging capacity (HOSC) assays for 3-HB mono-, di- and trimers (molecules of general formula 1, wherein n is 1 and 2, respectively), along with glutathione and ascorbic acid was performed. […] Oligomers of 3-HB having a chain length longer than four units had low antioxidant activity.

[2] = system: yeast GSH pathway deletion mutants gsh1Δ and gsh2Δ; format: cell-based, S. cerevisiae; settings: FIG. 2, 2.5 mM H2O2, 65 μM FeCl3
Experimental: Yeast strains (gsh1Δ (YJL101c) and gsh2Δ (YOL049w); EUROSCARF) were streaked from glycerol stocks onto YEPD agar plates (1% w/v Bacto yeast extract; 2% w/v Bacto peptone; 2% w/v D-glucose; 2% w/v agar) and incubated at +30° C. for 48 h. Yeast pre-cultures were inoculated from the plates and grown in liquid SG minimal medium (0.67% w/v yeast nitrogen base without amino acids; 2% w/v glucose with appropriate supplements: uracil, 0.02 mg/ml; amino acids, 0.03 mg/ml) at +30° C. in orbital shaker with 180 rpm to stationary phase (1.0-1.2 OD600). Growth was measured spectrophotometrically at 600 nm (OD600) and the cell densities were adjusted to 1.0 OD600 before inoculation of the final density of 0.25 OD600 into each assay reaction.
To validate the alleviation of oxidative stress in living cells and to identify the cellular target proteins for hydroxyl radical scavenging in eukaryotic cells, a yeast deletion mutant bioassay was developed on the basis of HOSC assay (Moore et al. 2006). Hydroxyl radicals were generated under physiological pH (7.4) in Fenton-like Fe^3+/H2O2 reaction. The original assay settings were adjusted for yeast cells in phosphate buffered SG medium, and the pH and O2 levels were monitored by SENBIT® system (Vasala et al. 2006). The concentration of hydrogen peroxide was optimized to a sub-lethal level (2.5 mM) and the reaction was supplemented with appropriate amount of FeCl3 (0.0646 mM) to produce a constant flux of .OH radicals.
The total reaction volume was down-scaled to 1 ml, which made the assay suitable for the natural products low in quantity. […]
All treatments were pipetted in triplicate, and the experiment was repeated three times. Cell growth was monitored at +30° C. for 72 hours and Petri plates were scanned digitally to high-quality computer images after 48 and 72 hours. Hydroxyl radical-induced stress and the alleviation of stress by antioxidant compounds in various deletion mutant strains of S. cerevisiae were evaluated visually.

Shoot tips of Scots pine = experiment: Viability assay on pine shoot tips; format: cell-based, Pinus sylvestris L.; settings: FIG. 3; medium including molecules (1) and (2); after five weeks; control shoot tip dead
Experimental: Viability Assay on Pine Shoot Tips Shoot tips (n=9-13) of Scots pine (Pinus sylvestris L.) were collected from young (>10 years) trees and surface-sterilized in 70% ethanol for 1 min and in 6% Ca(ClO)2 for 20 min, and rinsed thoroughly three times with sterile water. After rinsing in sterile water, the shoot tips (buds) were aseptically peeled in a laminar flow hood and placed on the media. The pine shoot tips were grown in 8/16 h photoperiod at +25±1° C. in the presence and absence of molecules of general formula I, wherein n is from 2 to 10. The viability of the pine tissue was assessed for up to 6 weeks visually (FIG. 3) and by 1% (w/v) acetocarmine staining. The viability on each fraction was recorded as percentage of live buds. The experiment was twice with each oligomer (mono- to decamer) on each Petri plate containing 18-31 pine shoot tips.

Structure (SMILES) | hydroxyl radical scavenging activity (in words) [1] | .OH scavengers, times better than ascorbic acid [1] | .OH scavengers, times better than glutathione [1] | scavenging capacity, times better compared to 3-HB monomer, 3-hydroxybutyric acid (3-HBA) [1] | antioxidant capacity against hydroxyl radicals (in words) ([1]; compared with 3-hydroxybutyric acid or ascorbic acid) | reversal of hypersensitivity of yeast mutants to hydroxyl radical stress (in words) [2] | state of Scots pine shoot tip (in words) (Shoot tips of Scots pine)
COC(=O)CC(C)OC(=O)CC(C)O (centres unmarked) [Compound 1, 3-hydroxybutyrate methyl ester dimer] | significantly better | 10 times | 3 times | 10 times | more than tenfold higher | reversal of hypersensitivity | alive
COC(=O)CC(C)OC(=O)CC(C)OC(=O)CC(C)O (centres unmarked) [Compound 2] | significantly better | 10 times | 3 times | 10 times | – | reversal of hypersensitivity | alive
N[C@@H](CCC(=O)N[C@@H](CS)C(=O)NCC(=O)O)C(=O)O [glutathione, reference compound] | – | – | – | – | – | reversal of hypersensitivity | –
